Results as given in patent US11617726B2, “Method for preventing, treating, or ameliorating a microbial infection” (priority 2018, dated 2023).

Tested on: Acinetobacter baumannii isolates
Experiment: Antimicrobial susceptibility test, disc diffusion method (CLSI M100-S24)
Type: cell-based
Design: key to Inhibition zone: “NZ” indicated that no zone of inhibition was observed
Conditions: for Inhibition zone: disc diffusion
Experimental: A total of 33 non-duplicate, non-consecutive clinical isolates of Multi-Drug Resistant (MDR) Acinetobacter baumannii were collected from burn wards (“AB1-AB33”). Acinetobacter baumannii ATCC BAA 747 and Pseudomonas aeruginosa ATCC 27853 were used as control strains. The isolates were stored at −80° C. in trypticase soy broth containing 20% glycerol.
Antimicrobial susceptibility tests of the collection of isolates were conducted using the disc diffusion method. The experiment was performed according to the recommendations and guidelines of Clinical Laboratory Standard Institutes (CLSI M100-S24; 2014). Clinical and Laboratory Standards Institute (CLSI), “Performance standards for antimicrobial susceptibility testing; twenty-fourth informational supplement,” Document M100-S24, Clinical and Laboratory Standards Institute (CLSI), Wayne, Pa., USA, 2014.
A panel of commercial antibiotic discs (Amoxicillin (AMX), Amoxicillin/clavulanic acid (AMX/CLA), Piperacillin (PIP), Piperacillin/Tazobactam (PIP/TAZ), Ceftazidime (CAZ), Cefotaxime (CTX), Cefepime (FEP), Cefoxitin (FOX), Aztreonam (ATM), Imipenem (IP), Gentamicin (GEN), Amikacin (AK), Neomycin (NEO), Levofloxacin (LEV), Chloramphenicol (CHL), Tetracycline (TET), sulfamethoxazole/trimethoprim (SUL/TRI) was used for susceptibility testing. All commercial antibiotic discs were purchased from BBL (Becton Dickinson, USA).
Forty grams of Mueller-Hinton Agar (MHA) were suspended in 1 Liter distilled water and then boiled to dissolve the powder completely. The medium was sterilized by autoclaving at 121° C. for 15 min. After autoclaving, the medium was cooled to 45° C. and 25 mL of molten agar media was poured into sterile Petri dishes (90 mm diameter) to give a depth of about 4 mm. The surface of the agar was dried to remove excess moisture before use. The plates were stored at 4-8° C. in sealed plastic bags if not used immediately.
The inoculum suspension was prepared by selecting three to five morphologically similar colonies from overnight growth (16-24 h of incubation) on blood agar medium. […] The suspension density was measured using a UV spectrophotometer calibrated with a 0.5 McFarland standard. The density of the suspension was adjusted to McFarland 0.5 by addition of saline or more microorganisms. The adjusted inoculum suspension was used within 60 min of preparation.
A sterile cotton swab was dipped into the bacterial suspension and the excess fluid was removed by turning the swab against the inside wall of the tube to avoid over-inoculation of plates. The inoculum was spread evenly over the entire surface of the agar plate by swabbing in three directions.
The predetermined panel of antimicrobial disks was applied firmly on the inoculated Mueller-Hinton agar surface within 15 min of inoculation of the plates by a disc dispenser device. A maximum of six disks were accommodated on a 90-mm circular plate.
Within 15 min of application of antimicrobial disks, the plates were inverted and incubated aerobically at 35-37° C. for 18-20 h.
After incubation, inhibition zones were measured at the point where no obvious growth is detected by the unaided eye when the plate is held about 30 cm from the eye. Inhibition zone diameters were measured to the nearest millimeter with a ruler. The plates were read from the back of the plate with reflected light against a dark background. Zone diameters were interpreted and categorized as susceptible “S”, intermediate “I”, or resistant “R” according to the CLSI clinical breakpoint tables (see Table 1 and Table 2).

NCC[C@H](O)C(=O)N[C@@H]1C[C@H](N)[C@@H](O[C@H]2O[C@H](CN)[C@@H](O)[C@H](O)[C@H]2O)[C@H](O)[C@H]1O[C@H]1O[C@H](CO)[C@@H](O)[C@H](N)[C@H]1O [AK, Amikacin]
22 mm: Inhibition zone (isolate AB9) | Inhibition zone (isolate AB13) | Inhibition zone (isolate AB17)
9 mm: Inhibition zone (isolate AB27)
11 mm: Inhibition zone (isolate AB21)
20 mm: Inhibition zone (isolate AB2)
25 mm: Inhibition zone (isolate AB33)
19 mm: Inhibition zone (isolate AB16)
S (Sensitive ≥17): susceptibility category (isolate AB1, AK disc) | susceptibility category (isolate AB2, AK disc) | susceptibility category (isolate AB3, AK disc) | susceptibility category (isolate AB4, AK disc) | susceptibility category (isolate AB6, AK disc) | susceptibility category (isolate AB9, AK disc) | susceptibility category (isolate AB12, AK disc) | susceptibility category (isolate AB13, AK disc) | susceptibility category (isolate AB16, AK disc) | susceptibility category (isolate AB17, AK disc) | susceptibility category (isolate AB26, AK disc) | susceptibility category (isolate AB33, AK disc)
14 mm: Inhibition zone (isolate AB18) | Inhibition zone (isolate AB19) | Inhibition zone (isolate AB24)
12 mm: Inhibition zone (isolate AB8)
30 mm: Inhibition zone (isolate AB6)
21 mm: Inhibition zone (isolate AB4) | Inhibition zone (isolate AB12)
18 mm: Inhibition zone (isolate AB26)
NZ: Inhibition zone (isolate AB7) | Inhibition zone (isolate AB10) | Inhibition zone (isolate AB11) | Inhibition zone (isolate AB14) | Inhibition zone (isolate AB20) | Inhibition zone (isolate AB22) | Inhibition zone (isolate AB23) | Inhibition zone (isolate AB25) | Inhibition zone (isolate AB31) | Inhibition zone (isolate AB32)
13 mm: Inhibition zone (isolate AB15)
24 mm: Inhibition zone (isolate AB1)
26 mm: Inhibition zone (isolate AB3)
7 mm: Inhibition zone (isolate AB5)
15 mm: Inhibition zone (isolate AB28) | Inhibition zone (isolate AB29) | Inhibition zone (isolate AB30)

CC1(C)S[C@@H]2[C@H](NC(=O)[C@H](N)c3ccc(O)cc3)C(=O)N2[C@H]1C(=O)O [AMX, Amoxicillin]
R (Resistant ≤13): susceptibility category (isolate AB1, AMX disc) | susceptibility category (isolate AB2, AMX disc) | susceptibility category (isolate AB3, AMX disc) | susceptibility category (isolate AB4, AMX disc) | susceptibility category (isolate AB5, AMX disc) | susceptibility category (isolate AB6, AMX disc) | susceptibility category (isolate AB7, AMX disc) | susceptibility category (isolate AB8, AMX disc) | susceptibility category (isolate AB9, AMX disc) | susceptibility category (isolate AB10, AMX disc) | susceptibility category (isolate AB11, AMX disc) | susceptibility category (isolate AB12, AMX disc) | susceptibility category (isolate AB13, AMX disc) | susceptibility category (isolate AB14, AMX disc) | susceptibility category (isolate AB15, AMX disc) | susceptibility category (isolate AB16, AMX disc) | susceptibility category (isolate AB17, AMX disc) | susceptibility category (isolate AB18, AMX disc) | susceptibility category (isolate AB19, AMX disc) | susceptibility category (isolate AB20, AMX disc) | susceptibility category (isolate AB21, AMX disc) | susceptibility category (isolate AB22, AMX disc) | susceptibility category (isolate AB23, AMX disc) | susceptibility category (isolate AB24, AMX disc) | susceptibility category (isolate AB25, AMX disc) | susceptibility category (isolate AB26, AMX disc) | susceptibility category (isolate AB27, AMX disc) | susceptibility category (isolate AB28, AMX disc) | susceptibility category (isolate AB29, AMX disc) | susceptibility category (isolate AB30, AMX disc) | susceptibility category (isolate AB31, AMX disc) | susceptibility category (isolate AB32, AMX disc) | susceptibility category (isolate AB33, AMX disc)
8 mm: Inhibition zone (isolate AB31) | Inhibition zone (isolate AB32)
9 mm: Inhibition zone (isolate AB28)
NZ: Inhibition zone (isolate AB1) | Inhibition zone (isolate AB2) | Inhibition zone (isolate AB3) | Inhibition zone (isolate AB4) | Inhibition zone (isolate AB5) | Inhibition zone (isolate AB6) | Inhibition zone (isolate AB7) | Inhibition zone (isolate AB8) | Inhibition zone (isolate AB9) | Inhibition zone (isolate AB10) | Inhibition zone (isolate AB11) | Inhibition zone (isolate AB12) | Inhibition zone (isolate AB13) | Inhibition zone (isolate AB14) | Inhibition zone (isolate AB15) | Inhibition zone (isolate AB16) | Inhibition zone (isolate AB17) | Inhibition zone (isolate AB18) | Inhibition zone (isolate AB19) | Inhibition zone (isolate AB20) | Inhibition zone (isolate AB21) | Inhibition zone (isolate AB22) | Inhibition zone (isolate AB23) | Inhibition zone (isolate AB24) | Inhibition zone (isolate AB25) | Inhibition zone (isolate AB26) | Inhibition zone (isolate AB27) | Inhibition zone (isolate AB29) | Inhibition zone (isolate AB30) | Inhibition zone (isolate AB33)
